Laboratory results as given in US12440466B2, “Fatty acid derivatives for treating non-alcoholic steatohepatitis” (BASF AS, priority 2017, dated 2025).
Marks after values point to notes of the source that are not given here.

How the values were obtained:
[1] = tested on: α-smooth muscle actin (SMA); assay: Hepatic α-SMA content by quantitative IHC in ob/ob AMLN mice; format: in vivo, mouse; conditions: 8 weeks, OCA 30 mg/kg
Method: (§1) Obese diet-induced B6.V-Lepob/Jrj mice (ob/ob) are consistently fibrosis (liver) prone when cholesterol (2%), 40% fat (containing 18% trans-fatty acids) and 20% fructose are added to a high-caloric diet (i.e., AMLN high-fat diet). ob/ob mice on AMLN diet (termed ‘ob/ob AMLN mice’) develop steatohepatitis and fibrosis within a shorter timeframe ([…]) compared with wild-type C57BL/6 mice (AMLN mice) fed the same diet. ob/ob AMLN mice provide an obese diet-induced model of NASH that also allows the study of effects on glycemic control. Development of NASH in the ob/ob AMLN model is confirmed by biopsy.
(§2) In Biological Examples 10, 13-14, and 16-18, studies were performed in male ob/ob mice (5 weeks old) fed an AMLN high-fat diet for 18 weeks, then randomized into 6 groups (n=10 per group) to receive either Compound A (at 3 different daily doses, 45 mg/kg, 90 mg/kg or 135 mg/kg) via diet, 30 mg/kg bw per day obeticholic acid (OCA) via diet, or no treatment (vehicle) for a further 8 weeks. Assessment of NASH related parameters and fibrosis was made at study end by quantitative immune histochemistry (IHC) measurements.

ob/ob AMLN mice = assay: Plasma ALT and AST (hepatocellular damage) in ob/ob AMLN mice; format: in vivo, mouse; conditions: 8 weeks, OCA 30 mg/kg
Method: as §1, §2
To assess the effects of Compound A and pioglitazone on hepatocellular injury or damage in ob/ob AMLN mice, plasma alanine aminotransferase (ALT) and aspartate transaminase (AST) were measured after 8 weeks of administration.

col1A1 = assay: Hepatic col1A1 content by quantitative IHC in ob/ob AMLN mice; format: in vivo, mouse; conditions: 8 weeks, OCA 30 mg/kg
Method: as §1, §2

[2] = Body weight, liver weight and food intake in ob/ob AMLN mice; format: in vivo, mouse
Method: as §1
In Biological Examples 10-12, 15, and 19, studies were performed in male ob/ob mice (5 weeks old) fed an AMLN high-fat diet for 15 weeks, then randomized into 3 groups (n=10 per group) to receive either 112 mg/kg bw per day of Compound A via diet, 30 mg/kg bw per day pioglitazone via diet or no treatment (vehicle) for a further 4 weeks. An oral glucose tolerance test (OGTT) was performed at week 3. Hepatic fibrosis was assessed via measurements of hepatic fibrogenic/fibrolytic gene expression by RNA sequencing at 4 weeks.
as §2

CDAA/high-fat fed mice [3] = assay: Hepatic lipidomic analysis, CDAA/high-fat diet mouse model; format: in vivo; conditions: Compound A 112 mg/kg bw per day or equimolar EPA, orally
Method: (§3) In Biological Examples 1-7, studies were performed in male C56BL/6J mice (9 weeks old). Mice were fed either choline-sufficient (CS) or choline deficient high-fat diets (31% total calories; “CDAA/high-fat”). The NASH inducing diet was instigated 6 weeks prior to the commencement of treatment in order to design the study as a treatment/reversal set-up rather than prophylaxis.
In Biological Example 7, after 6 weeks of either the CS or CDAA/high-fat diet, mice were administered 112 mg/kg bw per day of Compound A, or an equimolar dose of eicosapentaenoic acid (EPA), delivered orally. Hepatic lipidomic analysis was performed in isolated liver samples from CS (n=9), Compound A (n=9) and EPA (n=8) groups.
To further understand the effects of Compound A on hepatic lipid metabolism, lipidomic analysis of CS- and CDAA/high-fat fed mice (“CD”) was performed in isolated liver tissue.

STAM (model) mice [4] = assay: Fibrosis area by Sirius Red staining, STAM model; format: in vivo, mouse; conditions: Sirius Red positive area, 6 weeks treatment, Compound A 37 mg/kg/day oral gavage
Description: (§4) In Biological Example 8, pathogen-free 15-day-pregnant C57BL/6 mice were obtained from Charles River Laboratories in Japan Inc. (Kanagawa, Japan). NASH was established in male mice by a single subcutaneous injection of streptozotocin (STZ) (Sigma, USA) after birth and feeding with a high fat diet (HFD; CLEA) Japan, Japan) ad libitum after 4 weeks of age (day 28±2). Mice were randomised into 3 groups of 8 mice at 6 weeks of age the day before the start of treatment: vehicle (saline), Compound A and telmisartan (positive control). Treatment with Compound A at a dose of 37 mg/kg bw per day via oral gavage in conjunction with a high-fat diet was given for 6 weeks before sacrifice. NAFLD activity score (NAS) was calculated according to standardised criteria and fibrosis area was assessed via Sirius Red staining.

STAM (model) mice [5] = assay: NAFLD activity score (NAS) in streptozotocin/high-fat diet NASH model (STAM model); format: in vivo, mouse; conditions: 6 weeks treatment, Compound A 37 mg/kg/day oral gavage, telmisartan positive control
Description: as §4

APOE*3Leiden.CETP mice [6] = conditions: WO2016173923A1, cited from earlier work
TNF-α mRNA = assay: Hepatic TNF-α mRNA expression by qPCR, CDAA/high-fat diet mouse model; format: in vivo; conditions: CDAA/high-fat fed mice
Description: (§5) Mice were fed either choline-sufficient (CS) or choline deficient high-fat diets (31% total calories; “CDAA/high-fat”). The NASH inducing diet was instigated 6 weeks prior to the commencement of treatment in order to design the study as a treatment/reversal set-up rather than prophylaxis.
(§6) After 6 weeks of either the CS- or CDAA diet, mice were orally administered Compound A or comparison Compound N, both at 2 doses, 0.15 mmol/kg bw/day (low-dose, LD) and 0.3 mmol/kg bw per day (high-dose, HD). The test substances were administered orally as admix to the high-fat diet. Hepatic fibrosis was assessed by both measurement of hydroxyproline (HYP) content and Sirius Red (SR) morphometry. Fibrosis, inflammation and metabolism related transcripts levels were measured by quantitative real-time polymerase chain reaction (qPCR).
(§7) Studies were performed in male C56BL/6J mice (9 weeks old). Mice were divided into 6 experimental groups (n=9 per group) containing either CS or CDAA/high-fat diets, as described above. The NASH inducing CDAA/high fat diet was instigated 6 weeks prior to the commencement of treatment in order to assess treatment/reversal rather than prophylaxis. […] Compound A was administered orally as admix to the high-fat diet whilst GLP-1 agonist was delivered via intraperitoneal injection (i.p.). Fibrosis, inflammation and metabolism related transcripts levels were measured by quantitative real-time polymerase chain reaction (qPCR) in isolated liver tissue.

APOE*3Leiden.CETP mice [7] = assay: Hepatocellular hypertrophy grading in APOE*3Leiden.CETP double transgenic mice; format: in vivo, mouse; conditions: APOE*3Leiden.CETP mice on high fat/cholesterol diet; 0.3 mmol/kg bw per day by gavage; 20 weeks
Description: The APOE*3Leiden.CETP double transgenic mouse expresses a variant of the human apolipoprotein E3 (APOE3), the APOE*3Leiden, in addition to the human apolipoprotein C1 (APOC1) and CETP. […] By increasing the cholesterol content of the diet in this model, all the characteristics of human NASH develop.
In one study (using 1% cholesterol w/w), after a 3 weeks run-in period low-responder mice (20% of total) were removed from the study and the remaining mice were sub-divided into 4 groups of 12 mice each (+5 in the control group), matched for plasma cholesterol, triglycerides, blood glucose, body weight and age (t=0) and treatment was started. The mice received a daily gavage between 07hr00 and 10hr00 with either Compound A at 0.3 mmol/kg bw per day, the comparison compound Compound N (0.3 mmol/kg bw per day), rosiglitazone (13 mg/kg bw per day) or control (corn oil). After 20 weeks of treatment mice were sacrificed by CO2 asphyxiation, the liver was collected and the level of hepatocellular hypertrophy was graded.

CDAA/high-fat fed mice [8] = assay: Hepatic hydroxyproline (HYP) content, CDAA/high-fat diet induced NASH mouse model; format: in vivo
Description: Mouse models that are deficient in methionine and/choline (MCD and CDAA respectively) are well established for studying the development and treatment of NASH in pre-clinical drug development. As precursors for the synthesis of phosphatidylcholine, a dietary deficiency of methionine/choline leads to an inability to synthesize hepatic lipoproteins for the export of triglyceride that results in severe hepatic steatosis, inflammation and fibrosis.
Although the widely used methionine-choline deficient (MCD) diet consistently reproduces severe NASH-like hepatic inflammation and fibrosis in mice, it is also associated with severe weight-loss (loss of both skeletal muscle and fat mass). This is associated with an increased risk of death which presents major problems for long-term fibrogenesis experiments.
as §3
as §6, with “In Biological Examples 1-5, mice were divided into 6 experimental groups (n=9 per group) and fed either CS or CDAA/high-fat diets. After” for “After”

Col1a1 mRNA = assay: Hepatic Col1a1 mRNA expression by qPCR, CDAA/high-fat diet mouse model; format: in vivo; conditions: CDAA/high-fat fed mice
Description: as §5, §6, §7

[9] = tested on: LX-2 human hepatic stellate cells; assay: LX-2 stellate cell proliferation by BrdU incorporation; format: cell-based; conditions: LX-2 cells; 24 hours; OA 75 μM
Method: (§8) Stellate cells are resident liver cells and the major cell type involved in the initiation and progression of liver fibrosis. In Biological Example 20, in vitro studies were performed on cultured human stellate cells (LX-2 cells) to assess direct effects of Compound A on these cells. Cells were treated for 24 hours with Compound A (10 μM, 25 μM, 50 μM, or 75 μM) or oleic acid (OA; 75 μM) and bromodeoxyuridine (BrdU) incorporation was assessed to determine effects on proliferation. A MTS (3-(4,5-dimethylthiazol-2-yl)-5-(3-carboxymethoxyphenyl)-2-(4-sulfophenyl)-2H-tetrazolium) assay was used to determine cell viability.
(§9) Cell proliferation of LX-2 human hepatic stellate cells treated for 24 hours with 10-75 μM of Compound A or oleic acid (OA) (75 μM) was assessed by BrdU incorporation. The results are normalised mean values ±S.E.M. of 5 independent experiments for icosabutate and 2 independent experiments for OA. […] The reduction in proliferation by Compound A was 25-34% at 24 hours whereas OA had no effect. The comparisons were made by one-way ANOVA with Dunnett's correction for multiple comparisons.

[10] = tested on: LX-2 human hepatic stellate cells; assay: LX-2 cell viability by MTS assay; format: cell-based; conditions: LX-2 cells; 24 hours; Compound A 10-75 μM, OA 75 μM
Method: as §8, §9

[11] = 8 weeks, Compound A 45, 90 and 135 mg/kg, OCA 30 mg/kg bw per day

CC[C@H]1[C@@H](O)[C@@H]2[C@H](CC[C@]3(C)[C@@H]([C@H](C)CCC(=O)O)CC[C@@H]23)[C@@]2(C)CC[C@@H](O)C[C@@H]12 [OCA, reference compound]
area percentage of α-SMA content compared to pre-treatment biopsy [1]: no significant effect
plasma ALT (ob/ob AMLN mice): no effect
plasma AST (ob/ob AMLN mice): no effect
total col1A1 content (col1A1): no significant effect
body weight [2, 11]: neither Compound A (45 mg/kg, 90 mg/kg, and 135 mg/kg) nor OCA significantly affected body weight
food intake [2, 11]: not affected

CC/C=C\C/C=C\C/C=C\C/C=C\C/C=C\CCCC(=O)O [EPA, (5Z,8Z,11Z,14Z,17Z)-icosa-5,8,11,14,17-pentaenoic acid, reference compound]
hepatic cholesteryl ester (CDAA/high-fat fed mice [3]): did not reduce
hepatic diglycerides (DG) (CDAA/high-fat fed mice [3]): did not reduce
hepatic free fatty acids (FFA) (CDAA/high-fat fed mice [3]): did not reduce
hepatic triglyceride (TG) (CDAA/high-fat fed mice [3]): did not reduce

CCCc1nc2c(C)cc(-c3nc4ccccc4n3C)cc2n1Cc1ccc(-c2ccccc2C(=O)O)cc1 [Telmisartan, reference compound]
Fibrosis area (%) (STAM (model) mice [4]): 0.44%
Hepatocellular ballooning (STAM (model) mice [5]): 0.8
Lobular inflammation (STAM (model) mice [5]): 0.45
NAS score (mean ± SD) (STAM (model) mice [5]): 1.8 ± 0.8
Steatosis (STAM (model) mice [5]): 0.7

CC/C=C\C/C=C\C/C=C\C/C=C\C/C=C\CCCCSC(CC)(CC)C(=O)O [Compound N, 2-ethyl-2-((5Z,8Z,11Z,14Z,17Z)-icosa-5,8,11,14,17-pentaenylthio)butanoic acid, reference compound]
fibrosis (hydroxyproline/proline ratio) (APOE*3Leiden.CETP mice [6]; APOE*3Leiden.CETP mice): had efficacy in reducing fibrosis
influx of inflammatory cells into the liver (APOE*3Leiden.CETP mice [6]): prevented the influx of inflammatory cells into the liver
TNF-a (relative mRNA expression) (TNF-α mRNA; HD 0.3 mmol/kg bw per day): 1.2
TNF-a (relative mRNA expression) (TNF-α mRNA; LD 0.15 mmol/kg bw/day): 1***
Decrease in hypertrophy vs. control (%) (APOE*3Leiden.CETP mice [7]): 7%
Hepatocellular hypertrophy (APOE*3Leiden.CETP mice [7]): 42.9 ± 29.7
Hydroxyproline (μg) content per 100 mg liver (CDAA/high-fat fed mice [8]; HD 0.3 mmol/kg bw per day orally as admix to diet): 54 μg HYP/per 100 mg liver
Hydroxyproline (μg) content per 100 mg liver (CDAA/high-fat fed mice [8]; LD 0.15 mmol/kg bw/day orally as admix to diet): 48 μg HYP/per 100 mg liver
Hydroxyproline (μg) content per liver (CDAA/high-fat fed mice [8]; high dose (HD) 0.3 mmol/kg bw per day orally as admix to diet): 950 µg
Hydroxyproline (μg) content per liver (CDAA/high-fat fed mice [8]; low dose (LD) 0.15 mmol/kg bw/day orally as admix to diet): 1100 µg
Col1a1 (relative mRNA expression) (Col1a1 mRNA; HD 0.3 mmol/kg bw per day): 16
Col1a1 (relative mRNA expression) (Col1a1 mRNA; LD 0.15 mmol/kg bw/day): 15

CCc1ccc(CCOc2ccc(CC3SC(=O)NC3=O)cc2)nc1 (stereo not drawn) [pioglitazone, reference compound]
increase in bodyweight ([2]; 4 weeks, pioglitazone 30 mg/kg bw per day, p<0.01): 15%

CCCCCCCC/C=C\CCCCCCCC(=O)O [OA, oleic acid, reference compound]
proliferation (BrdU incorporation) [9]: no effect
cell viability (MTS assay) [10]: neither Compound A nor OA showed a significant effect
